# Laboratory results: paper PMC11430712, “The Endocannabinoid Peptide RVD-Hemopressin Is a TRPV1 Channel Blocker” (Biomolecules, 2024)
# Entries after “also recorded” stand apart in the source; their conditions may differ. Peptide text beside a SMILES is read from it.
# Legend:
# [1] = tested on: TRPV1 channel; parameters: method as in 4 sources, ref [12]; anandamide and 2-AG ref [13],[14],[15],[16] ||| ref [88],[89] = [88]; PMID 27281200; doi:10.1038/nature17964; 88. Gao Y. Cao E. Julius D. Cheng Y. TRPV1 structures in nanodiscs reveal mechanisms of ligand and lipid action Nature 2016 534 347 351 10.1038/nature17964 27281200 PMC4911334 || [89]; PMID 37117175; doi:10.1038/s41467-023-38162-9; 89. Neuberger A. Oda M. Nikolaev Y.A. Nadezhdin K.D. Gracheva E.O. Bagriantsev S.N. Sobolevsky A.I. Human TRPV1 structure and inhibition by the analgesic SB-366791 Nat. Commun. 2023 14 2451 10.1038/s4 ||| ref [90] = [90]; PMID 38698206; doi:10.1038/s41594-024-01299-2; 90. Arnold W.R. Mancino A. Moss F.R. Frost A. Julius D. Cheng Y. Structural basis of TRPV1 modulation by endogenous bioactive lipids Nat. Struct. Mol. Biol. 2024 1 9 10.1038/s41594-024-01299-2 3869820 ||| ref [67] = [67]; PMID 29117570; doi:10.1016/j.celrep.2017.10.063; 67. Nersesyan Y. Demirkhanyan L. Cabezas-Bratesco D. Oakes V. Kusuda R. Dawson T. Sun X. Cao C. Cohen A.M. Chelluboina B. Oxytocin Modulates Nociception as an Agonist of Pain-Sensing TRPV1 Cell Rep. 2; conditions: cited from earlier work; for TRPV1 activation: capsaicin ref [12], anandamide and 2-AG ref [13],[14],[15],[16]; for TRPV1 channel state: vanilloid pocket, ref [90]
# Description: The transient receptor potential (TRP) channels family involves several subfamilies, including the vanilloid (TRPVs) group. TRPV1, a member of the TRPV subfamily, is a non-selective cationic homotetramer channel. It is known to be activated by various stimuli, including temperature, capsaicin (the principal compound in chili peppers), and endocannabinoids such as anandamide (AEA) and 2-arachidonoylglycerol (2-AG). The TRPV1 channel protein is found in the central (CNS) and peripheral nervous system (PNS). In the CNS, TRPV1 is expressed in the prefrontal cort ... || Molecular dynamics (MD) simulations allow studying protein dynamics at an atomic level under physiological conditions, enhancing our understanding of various proteins, including ion channels like TRPV1 [82]. These simulations provide insight into their function, conformational changes, and interactions with different ligands.
# [2] = individuals with osteoarthritis; ref [99]; cited from earlier work
# Description: Capsaicin creams and patches have been used in the treatment of muscle pain, neuropathic pain, arthritis, and migraines. […] CNTX-4975 has been developed as a treatment option for pain in individuals with osteoarthritis.
# [3] = target: T1, human TRPV1 channel (Homo sapiens, UniProt Q8NER1); assay: Whole-cell voltage-clamp recording of TRPV1 currents, HEK293 cells with human TRPV1-GFP; type: cell-based
# T1 construct: host or cells: HEK293
# T1 sequence (Q8NER1 whole entry): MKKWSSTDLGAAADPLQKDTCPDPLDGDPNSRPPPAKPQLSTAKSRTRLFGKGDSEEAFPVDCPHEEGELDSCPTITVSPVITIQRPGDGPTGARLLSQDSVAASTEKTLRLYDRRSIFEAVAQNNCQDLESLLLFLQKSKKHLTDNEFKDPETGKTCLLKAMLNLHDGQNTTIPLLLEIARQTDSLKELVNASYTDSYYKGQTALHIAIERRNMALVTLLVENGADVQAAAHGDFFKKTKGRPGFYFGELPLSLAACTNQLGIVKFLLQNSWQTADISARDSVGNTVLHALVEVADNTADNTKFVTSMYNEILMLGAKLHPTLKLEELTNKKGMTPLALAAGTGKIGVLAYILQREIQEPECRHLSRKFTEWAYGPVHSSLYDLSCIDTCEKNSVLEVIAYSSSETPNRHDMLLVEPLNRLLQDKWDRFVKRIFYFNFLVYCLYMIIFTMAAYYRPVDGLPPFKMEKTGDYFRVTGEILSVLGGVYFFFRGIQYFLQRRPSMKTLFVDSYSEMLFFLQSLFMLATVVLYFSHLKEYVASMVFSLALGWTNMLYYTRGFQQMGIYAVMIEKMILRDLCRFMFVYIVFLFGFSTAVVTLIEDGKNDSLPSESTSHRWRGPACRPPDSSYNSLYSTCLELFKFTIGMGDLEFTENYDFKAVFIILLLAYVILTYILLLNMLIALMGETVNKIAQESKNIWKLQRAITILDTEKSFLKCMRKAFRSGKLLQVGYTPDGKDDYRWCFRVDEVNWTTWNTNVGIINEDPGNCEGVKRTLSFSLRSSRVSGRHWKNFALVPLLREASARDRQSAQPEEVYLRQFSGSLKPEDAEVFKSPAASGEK
# Protocol: (§1) Dr. Alejandro Maureira, Universidad Católica del Maule, Chile, generously provided HEK293 cells. The cells were cultured in T75 flasks (Corning Inc., Corning, NY, USA) in a humidified atmosphere at 37 °C with 5% CO2 in Dulbecco’s Modified Eagle Medium (DMEM) with high glucose (Cytiva, Marlborough, MA, USA), supplemented with 10% fetal bovine serum (Cytiva, Marlborough, MA, USA) and a mixture of 100 IU/mL penicillin and 100 µg/mL streptomycin (Corning Inc., Corning, NY, USA) in a CO2CELL incubator (MMM Group, Munich, Germany). This procedure was used to maintain the cells for all of the experiments.
# (§2) HEK293 cells were transfected with the human TRPV1 channel coupled to GFP in its C-terminus (TRPV1-GFP, catalog #: RG217653, Origene, Rockville, MD, USA). […] Transfections were conducted using Lipofectamine 3000 (Invitrogen, Waltham, MA, USA), according to the manufacturer’s instructions. Experimental protocols were performed 24 h post-transfection.
# Untransfected and transfected HEK293 cells with the human TRPV1-GFP were recorded using a whole-cell voltage clamp. Cells were cultured in 15 mm round coverslips pretreated with 0.1 mg/mL poly-L-lysine (Gibco, Billings, MT, USA) and transfected with TRPV1-GFP plasmid. TRPV1-GFP-positive cells were identified using a 405 nm LED light in a Nikon Eclipse Ts2 inverted microscope. Borosilicate pipettes (nº 1B150F-4, World Precision Instruments, Sarasota, FL, USA) of 2.8’5 MΩ were used. Pipettes were pulled with a P-97 Micropipette Puller (Sutter Instruments, Novato, CA, USA). The extracellular solution contained (in mM) 140 NaCl, 5 KCl, 2 CaCl2, 1 MgCl2, 10 HEPES, and 6 glucose at pH 7.4. The internal solution contained (in mM) 140 CsCl, 4 MgCl2, 10 EGTA, and 10 HEPES-CsOH at pH 7.3. All the experiments were recorded using a HEKA EPC9 amplifier. The holding potential was −80 mV. A 500 ms voltage ramp from −80 to 80 mV was applied to record TRPV1 currents. The sample frequency was 50 kHz, and the signals were filtered at 2.9 kHz using PatchMaster software. Data were analyzed using Clampfit v.7 software (Molecular Devices, San Jose, CA, USA). The extracellular solution and ligands were administered using a VC-8 perfusion system (~2 mL/s, Warner Instruments, Holliston, MA, USA). We used capsaicin (Cayman Chemicals, nº 92350), SB366791 (nº 11019, Cayman Chemicals, Ann Arbor, MI, USA), and RVD-Hp (Synbio Technologies, Monmouth Junction, NJ, USA). We used dimethyl sulfoxide (DMSO, Sigma-Aldrich, St. Louis, MO, USA) and untransfected cells as controls. Electrophysiological recordings were performed at room temperature.
# (§3) The data were analyzed and plotted using GraphPad software v10.0.2. We used the Shapiro–Wilk test to determine the data distribution. […] Statistically significant values were considered when p values were * p < 0.05, ** p < 0.01, *** p < 0.001, and **** p < 0.0001.
# [4] = ref [106]; cited from earlier work
# Description: Chronic pain is often accompanied by the development of depression. […] However, a significant challenge in utilizing RVD-Hp as a therapeutic agent lies in the inherent sensitivity of peptides to enzymatic degradation. […] Developing carriers that can stabilize RVD-Hp and facilitate its delivery to the brain is essent ...
# [5] = tested on: rats; conditions: cited from earlier work
# Description: Despite this, evidence of a direct interaction between Hp and the TRPV1 channel is lacking. We speculate that Hp binds and activates TRPV1, possibly engaging the same binding site as RVD-Hp. […] Thus, RVD-Hp emerges and holds potential as a novel modulator for non-opioid analgesia and anxiety treatment. […] Moreover, since RVD-Hp effectively blocks the open TRPV1 channel, it presents a promising approach to inhibit the population of TRPV1 channels that are pathologically over-activated, thereby ... || (+ 1 further places)
# [6] = target: T1, human TRPV1 channel; assay: Calcium imaging (Fura Red-AM), HEK293 cells transfected with hTRPV1-GFP; type: cell-based; conditions: pH 7.4, room temperature
# Protocol: as §1, §2, §3
# [7] = target: human TRPV1 channel coupled to GFP in its C-terminus (human) (UniProt Q8NER1)
# Sequence of human TRPV1 channel coupled to GFP in its C-terminus (human) (Q8NER1 whole entry): as above
molecule,measurement,setting,value
CCCCC/C=C\C/C=C\C/C=C\C/C=C\CCCC(=O)OC(CO)CO [2-arachidonoylglycerol],TRPV1 activation,[1],activated
COc1cc(CNC(=O)CCCC/C=C/C(C)C)ccc1O [CNTX-4975],Adverse effects,[2],"nausea, hypotension, oral hypoesthesia, and erythema"
"CC(C)C[C@H](NC(=O)[C@H](CC(C)C)NC(=O)[C@H](CCCCN)NC(=O)[C@H](Cc1ccccc1)NC(=O)[C@H](CC(N)=O)NC(=O)[C@@H](NC(=O)[C@@H]1CCCN1C(=O)[C@H](CC(=O)O)NC(=O)[C@@H](NC(=O)[C@@H](N)CCCNC(=N)N)C(C)C)C(C)C)C(=O)N[C@@H](CO)C(=O)N[C@@H](Cc1cnc[nH]1)C(=O)O [RVD-Hp, RVD-hemopressin] (H-RVDPVNFKLLSH-OH)",IC50,[3],18.6 µM
same,Blood–brain barrier crossing,[4],cannot cross the blood–brain barrier
same,Stability in plasma,[4],low stability in plasma
COc1cccc(NC(=O)/C=C/c2ccc(Cl)cc2)c1 [SB366791],TRPV1 binding mode of antagonists,"[1]; requiring four molecules to induce channel closure, ref [88],[89]",bind to the vanilloid pocket and compete with capsaicin
same,Effect on Hp-induced anxious behavior,"[5]; SB366791 on Hp-induced behavior, ref [8]",mitigating impact; also recorded: mitigated
same,Block of Cap-induced increase in intracellular Ca^2+ concentration,"[6]; 1 µM Cap + 10 µM RVD-Hp (n: 60, * p < 0.032) or 10 µM SB366791 (n: 20, * p < 0.0113), comparison to Cap",partially blocked
same,Effect on intracellular Ca^2+ of the compound alone,"[6]; 10 µM alone, no Cap, RVD-Hp n: 59, SB366791 n: 51",Neither 10 µM RVD-Hp nor 10 µM SB366791 augmented the intracellular Ca^2+
same,Current of compound alone compared with Cap-induced TRPV1 current,"[3]; 10 µM alone vs 1 µM Cap, ***** p < 0.0001",significantly different from the Cap-induced TRPV1 current
same,Current of compound alone compared with control,[3]; 10 µM alone vs control (n: 7),not different from the control
same,TRPV1 currents induced by the compound alone,"[3]; 10 µM alone, +80 mV, RVD-Hp n: 4, SB366791 n: 3, room temperature",Neither 10 µM RVD-Hp nor 10 µM SB366791 alone induced TRPV1 currents
same,Block of Cap-induced TRPV1 currents,"[3]; 10 µM with 1 µM Cap, +80 mV, RVD-Hp n: 4 (* p < 0.0214), SB366791 n: 4 (**** p < 0.0001), comparison to capsaicin, room temperature",blocked
CCCCC/C=C\C/C=C\C/C=C\C/C=C\CCCC(=O)NCCO [anandamide],TRPV1 activation,[1],activated
Phosphoinositide,TRPV1 channel state,[1],favor the close state of the TRPV1 channel
hemopressin,Anxiety-like behavior (Hp in rats),"[5]; rats, ref [8],[9]",induces anxiety-like behavior in rats
same,Anxiety-/depressive-like behavior,"[5]; rodent models, ref [8]",induce anxiogenic and depressive-like behaviors
lysophosphatidic acid,TRPV1 channel state,[1],induces channel opening
oxytocin,TRPV1 activation and nociception (oxytocin),[1]; ref [67],activate the TRPV1 channel and modulate nociception
"phosphatidylinositol 4,5-biphosphate",TRPV1 channel state,[1],favor the close state of the TRPV1 channel
RVDPVNFKLLSH [RVD-hemopressin],"whole-cell voltage clamp of HEK293 cells expressing TRPV1-GFP: inhibition of the TRPV1 current induced by 1 µM capsaicin (at +80 mV), RVD-Hp at 1, 10, 20 and 50 µM; IC50",[7],18.6 µM
